# Experimental data published in patent US9199984B2, “Inhibition of enzymes” (CHIESI FARMACEUTICI S.p.A., priority 2012, dated 2015).
# Where a name gives a salt, the structure may show the parent alone.
# Target: T1, human neutrophil elastase (HNE) (Homo sapiens, UniProt P08246)
# T1 construct: purchased Sigma E8140
# T1 sequence (P08246 30-247 limits assumed): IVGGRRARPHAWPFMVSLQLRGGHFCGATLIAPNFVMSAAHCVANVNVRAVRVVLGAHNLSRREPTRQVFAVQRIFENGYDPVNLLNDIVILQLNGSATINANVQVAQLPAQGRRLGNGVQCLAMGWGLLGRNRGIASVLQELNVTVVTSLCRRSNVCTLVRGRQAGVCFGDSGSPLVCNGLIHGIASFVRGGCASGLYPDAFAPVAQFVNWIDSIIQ
# Assay: HNE enzyme activity assay
# Assay type: biochemical
# Settings: human leukocyte elastase, substrate MeOSuc-Ala-Ala-Pro-Val-AMC 100 μM, 25° C. for 30 minutes, fluorescence; read-out: HNE inhibition
# Procedure: Compounds of the present invention were tested for potency in a human neutrophil elastase (HNE) enzyme activity assay.
# Assays were performed in 96-well plates in a total assay volume of 100 μl. The final concentration of elastase enzyme (human leukocyte elastase, Sigma E8140) was 0.0036 units/well […]. The peptide substrate (MeOSuc-Ala-Ala-Pro-Val-AMC, Calbiochem #324740) was used at a final concentration of 100 μM. The final concentration of DMSO was 1% in the assay buffer (0.05M Tris.HCl, 0.1M NaCl, 0.1M CaCl2, 0.0005% brij-35, pH 7.5). The enzymatic reaction was started by addition of the enzyme and incubated at 25° C. for 30 minutes. After incubation, the reaction was stopped by addition of soybean trypsin inhibitor (Sigma T9003) at a final concentration of 50 μg/well. Fluorescence was measured using a Molecular Devices fluorescence plate reader using 380 nm excitation and 460 nm emission wavelengths.
# A dose response to each compound was performed and the effect of compound in each experiment was expressed as a percentage inhibition of the control enzyme fluorescence. Dose response curves were plotted and compound potency (IC50) was determined. Compounds were tested in at least two separate experiments.
row,SMILES,IC50 [nM]
1,"COc1nc2c(-c3cccc(C(F)(F)F)c3)c(C)c(-c3ccnn3-c3ccc(C#N)cc3)cn2n1 [Example 31, 4-{5-[2-Methoxy-7-methyl-8-(3-trifluoromethyl-phenyl)-[1,2,4]triazolo[1,5-a]pyridin-6-yl]-pyrazol-1-yl}-benzonitrile]",100 to 500
2,"Cc1c(-c2ccnn2-c2ccc(C#N)cc2)cn2nc(NC(=O)CN(C)C)nc2c1-c1cccc(C(F)(F)F)c1 [Example 14, N-[6-[2-(4-Cyano-phenyl)-2H-pyrazol-3-yl]-7-methyl-8-(3-trifluoromethyl-phenyl)-[1,2,4]triazolo[1,5-a]pyridin-2-yl]-2-dimethylamino-acetamide]",< 20
3,"Cc1c(-c2nc(N)nn2-c2ccc(C#N)cc2)cn2nc(N)nc2c1-c1cccc(C(F)(F)F)c1 [Example 61, 4-{3-Amino-5-[2-amino-7-methyl-8-(3-trifluoromethyl-phenyl)-[1,2,4]triazolo[1,5-a]pyridin-6-yl]-[1,2,4]triazol-1-yl}-benzonitrile]",< 20
4,"COCCOC(=O)Nc1nc2c(-c3cccc(C(F)(F)F)c3)c(C)c(-c3ccnn3-c3ccc(C#N)cc3)cn2n1 [Example 36, [6-[2-(4-Cyano-phenyl)-2H-pyrazol-3-yl]-7-methyl-8-(3-trifluoromethyl-phenyl)-[1,2,4]triazolo[1,5-a]pyridin-2-yl]-carbamic acid 2-methoxyethyl ester]",< 20
5,"Cc1c(-c2ccnn2-c2ccc(C#N)cc2)cn2nc(NC(=O)NCCC[N+](C)(C)C)nc2c1-c1cccc(C(F)(F)F)c1 [Example 38, (3-{3-[6-[2-(4-Cyano-phenyl)-2H-pyrazol-3-yl]-7-methyl-8-(3-trifluoromethyl-phenyl)-[1,2,4]triazolo[1,5-a]pyridin-2-yl]-ureido}-propyl)-trimethyl-ammonium formate]",< 20
6,"Cc1c(-c2ccnn2-c2ccc(C#N)cc2)cn2nc(NC(=O)CC[S+](C)[O-])nc2c1-c1cccc(C(F)(F)F)c1 (stereo not shown) [Example 45, N-[6-[2-(4-Cyano-phenyl)-2H-pyrazol-3-yl]-7-methyl-8-(3-trifluoromethyl-phenyl)[1,2,4]triazolo[1,5-a]pyridin-2-yl]-3-methanesulfinyl-propionamide]",< 20
7,"Cc1c(-c2ccnn2-c2ccc(C#N)cc2)cn2c(=O)[nH]nc2c1-c1cccc(C(F)(F)F)c1 [Example 9, 4-{5-[7-Methyl-3-oxo-8-(3-trifluoromethyl-phenyl)-2,3-dihydro-[1,2,4]triazolo[4,3-a]pyridin-6-yl]-pyrazol-1-yl}-benzonitrile]",< 20
8,"CC(=O)Nc1nc2c(-c3cccc(OC(F)(F)F)c3)c(C)c(-c3ccnn3-c3ccc(C#N)cc3)cn2n1 [Example 44, N-[6-[2-(4-Cyano-phenyl)-2H-pyrazol-3-yl]-7-methyl-8-(3-trifluoromethoxy-phenyl)-[1,2,4]triazolo[1,5-a]pyridin-2-yl]-acetamide]",20 to 100
9,"Cc1c(-c2ccnn2-c2ccc(C#N)cc2)cn2nc(NC(=O)CN3CC[N+](C)(C)CC3)nc2c1-c1cccc(C(F)(F)F)c1 [Example 19, 4-{[6-[2-(4-Cyano-phenyl)-2H-pyrazol-3-yl]-7-methyl-8-(3-trifluoromethyl-phenyl)-[1,2,4]triazolo[1,5-a]pyridin-2-ylcarbamoyl]-methyl}-1,1-dimethyl-piperazin-1-ium iodide]",< 20
10,CC(=O)Nc1nc2c(-c3cccc(C(F)(F)F)c3)c(C)c(-c3ccccc3-c3ccc(C#N)cc3)cn2n1 [Example 43],< 20
11,"CC(=O)Nc1nc2c(-c3cccc(C(F)(F)F)c3)c(C)c(-c3ccnn3-c3ccc(C#N)cc3)cn2n1 [Example 26, N-[6-[2-(4-Cyano-phenyl)-2H-pyrazol-3-yl]-7-methyl-8-(3-trifluoromethyl-phenyl)-[1,2,4]triazolo[1,5-a]pyridin-2-yl]-acetamide]",< 20
12,"CC(=O)Nc1nc2c(-c3cccc(C(F)(F)F)c3)c(C)c(-c3ccnn3-c3ccc(C#N)cc3F)cn2n1 [Example 41, N-[6-[2-(4-Cyano-2-fluoro-phenyl)-2H-pyrazol-3-yl]-7-methyl-8-(3-trifluoromethyl-phenyl)-[1,2,4]triazolo[1,5-a]pyridin-2-yl]-acetamide]",< 20
13,"Cc1c(-c2ccnn2-c2ccc(C#N)cc2)cn2nc(NC(=O)C[N+]3(C)CCN(C)CC3)nc2c1-c1cccc(C(F)(F)F)c1 [Example 25, 1-{[6-[2-(4-Cyano-phenyl)-2H-pyrazol-3-yl]-7-methyl-8-(3-trifluoromethyl-phenyl)-[1,2,4]triazolo[1,5-a]pyridin-2-ylcarbamoyl]-methyl}-1,4-dimethyl-piperazin-1-ium chloride]",20 to 100
14,"CNCCCC(=O)Nc1nc2c(-c3cccc(C(F)(F)F)c3)c(C)c(-c3ccnn3-c3ccc(C#N)cc3)cn2n1 [Example 56, N-[6-[2-(4-Cyano-phenyl)-2H-pyrazol-3-yl]-7-methyl-8-(3-trifluoromethyl-phenyl)-[1,2,4]triazolo[1,5-a]pyridin-2-yl]-4-methylamino-butyramide]",< 20
15,"Cc1c(-c2ccnn2-c2ccc(C#N)cc2)cn2nc(NS(C)(=O)=O)nc2c1-c1cccc(C(F)(F)F)c1 [Example 27, N-[6-[2-(4-Cyano-phenyl)-2H-pyrazol-3-yl]-7-methyl-8-(3-trifluoromethyl-phenyl)-[1,2,4]triazolo[1,5-a]pyridin-2-yl]-methanesulfonamide]",20 to 100
16,"Cc1c(-c2ccnn2-c2ccc(C#N)cc2)cn2nc(NC(=O)NC3CCN(C)CC3)nc2c1-c1cccc(C(F)(F)F)c1 [Example 51, (1-Methyl-4-piperidyl)[6-[2-(4-cyano-phenyl)-2H-pyrazol-3-yl]-7-methyl-8-(3-trifluoromethyl-phenyl)-[1,2,4]triazolo[1,5-a]pyridin-2-yl]-urea]",< 20
17,"Cc1c(-c2ccnn2-c2ccc(C#N)cc2)cn2nc(NC(=O)C[N+](C)(C)C)nc2c1-c1cccc(C(F)(F)F)c1 [Example 15, {[6-[2-(4-Cyano-phenyl)-2H-pyrazol-3-yl]-7-methyl-8-(3-trifluoromethyl-phenyl)-[1,2,4]triazolo[1,5-a]pyridin-2-ylcarbamoyl]-methyl}-trimethyl-ammonium bromide]",20 to 100
18,"Cc1nc2c(-c3cccc(C(F)(F)F)c3)c(C)c(-c3ccnn3-c3ccc(C#N)cc3)cn2n1 [Example 4, 4-{5-[2,7-Dimethyl-8-(3-trifluoromethyl-phenyl)-[1,2,4]triazolo[1,5-a]pyridin-6-yl]-pyrazol-1-yl}-benzonitrile]",> 500
19,"CC(=O)N1CCC(NC(=O)Nc2nc3c(-c4cccc(C(F)(F)F)c4)c(C)c(-c4ccnn4-c4ccc(C#N)cc4)cn3n2)CC1 [Example 57, 1-(1-Acetyl-piperidin-4-yl)-3-[6-[2-(4-cyano-phenyl)-2H-pyrazol-3-yl]-7-methyl-8-(3-trifluoromethyl-phenyl)-[1,2,4]triazolo[1,5-a]pyridin-2-yl]-urea]",< 20
20,"Cc1c(-c2ccnn2-c2ccc(C#N)cc2)cn2nc(NCCCS(C)(=O)=O)nc2c1-c1cccc(C(F)(F)F)c1 [Example 47, 4-{5-[2-(3-Methanesulfonyl-propylamino)-7-methyl-8-(3-trifluoromethyl-phenyl)-[1,2,4]triazolo[1,5-a]pyridin-6-yl]-pyrazol-1-yl}-benzonitrile]",< 20
21,"Cc1c(-c2ccnn2-c2ccc(C#N)cc2)cn2nc(NCC[N+](C)(C)C)nc2c1-c1cccc(C(F)(F)F)c1 [Example 33, {3-[6-[2-(4-Cyano-phenyl)-2H-pyrazol-3-yl]-7-methyl-8-(3-trifluoromethyl-phenyl)-[1,2,4]triazolo[1,5-a]pyridin-2-ylamino]-ethyl}-trimethyl-ammonium benzenesulfonate]",< 20
22,"Cc1c(-c2ccnn2-c2ccc(C#N)cc2)cn2nc(NCCN(C)C)nc2c1-c1cccc(C(F)(F)F)c1 [Example 29, 4-{5-[2-(2-Dimethylamino-ethylamino)-7-methyl-8-(3-trifluoromethyl-phenyl)-[1,2,4]triazolo[1,5-a]pyridin-6-yl]-pyrazol-1-yl}-benzonitrile]",20 to 100
23,"Cc1c(-c2ccnn2-c2ccc(C#N)cc2)cn2nc(NCc3ccc(S(C)(=O)=O)cc3)nc2c1-c1cccc(C(F)(F)F)c1 [Example 23, 4-{5-[2-(4-Methanesulfonyl-benzylamino)-7-methyl-8-(3-trifluoromethyl-phenyl)-[1,2,4]triazolo[1,5-a]pyridin-6-yl]-pyrazol-1-yl}-benzonitrile]",< 20
24,"Cc1c(-c2ccnn2-c2ccc(C#N)cc2)cn2nc(NCCC[N+](C)(C)C)nc2c1-c1cccc(C(F)(F)F)c1 [Example 32, {3-[6-[2-(4-Cyano-phenyl)-2H-pyrazol-3-yl]-7-methyl-8-(3-trifluoromethyl-phenyl)-[1,2,4]triazolo[1,5-a]pyridin-2-ylamino]-propyl}-trimethyl-ammonium benzenesulfonate]",< 20
25,"Cc1c(-c2ccnn2-c2ccc(C#N)cc2)cn2nc(Cc3ccc(S(C)(=O)=O)cc3)nc2c1-c1cccc(C(F)(F)F)c1 [Example 8, 4-{5-[2-(4-Methanesulfonyl-benzyl)-7-methyl-8-(3-trifluoromethyl-phenyl)-[1,2,4]triazolo[1,5-a]pyridin-6-yl]-pyrazol-1-yl}-benzonitrile]",100 to 500
